25 molecules from the supplement of paper PMC12137928 can be followed below.

In this assay the test system is HCT116. The settings on record: 72 h. In short, it runs like this: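 Luminescence was read with CellTiter-Glo in HCT116 cells seeded at 250 per well in 1536-well plates. Signals were scaled between vehicle at 0% and positive control at -100%, then pattern-corrected. IC50 and maximal efficacy were obtained by fitting a four-parameter Hill equation.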

Where a name gives a salt, the structure may show the parent alone.

Turning to `CC(C)(C)NC(=O)[C@@H]1CN(Cc2cccnc2)CCN1C[C@@H](O)C[C@@H](Cc1ccccc1)C(=O)N[C@H]1c2ccccc2C[C@H]1O` [Indinavir sulfate], the IC50 cell viability by setting is: (ICRF193 0 nM) over 45.8 µM; (ICRF193 200 nM) over 45.8 µM.

In the case of `Cc1cc(O)c2c(O)c3c(O)cccc3cc2c1` [Chrysarobin], the IC50 cell viability is, setting by setting: (ICRF193 0 nM) over 45.8 µM; (ICRF193 200 nM) over 45.8 µM.

With `OC(CCN1CCCCC1)(c1ccccc1)c1ccccc1` [Pridinol], the IC50 cell viability runs as follows: (ICRF193 0 nM) over 45.8 µM; (ICRF193 200 nM) over 45.8 µM.

On to `O=C1OC2(c3ccccc31)c1cc(I)c(O)c(I)c1Oc1c2cc(I)c(O)c1I` [Erythrosin B], for which the IC50 cell viability was over 45.8 µM (ICRF193 0 nM) and over 45.8 µM (ICRF193 200 nM).

For `O=P(O)(O)C(Cl)(Cl)P(=O)(O)O` [Clodronate], the IC50 cell viability reads like this: (ICRF193 0 nM) over 45.8 µM; (ICRF193 200 nM) over 45.8 µM.

In the case of `CCN(CC)C(=O)c1cccc(C)c1` [DEET], the IC50 cell viability is, setting by setting: (ICRF193 0 nM) over 45.8 µM; (ICRF193 200 nM) over 45.8 µM.

In the case of `CC(=O)N(CC(=O)N(C)C)c1ccccc1` [Phenylacetylglycine dimethylamide], the IC50 cell viability is, setting by setting: (ICRF193 0 nM) over 45.8 µM; (ICRF193 200 nM) over 45.8 µM.

As for `O=P(O)(O)C(O)(Cc1cccnc1)P(=O)(O)O` [Risedronate sodium], the IC50 cell viability (ICRF193 0 nM) is over 45.8 µM and the IC50 cell viability (ICRF193 200 nM) is over 45.8 µM.

With `COCCCOc1cc(C[C@@H](C[C@H](N)[C@@H](O)C[C@H](C(=O)NCC(C)(C)C(N)=O)C(C)C)C(C)C)ccc1OC` [Aliskiren hemifumarate], the IC50 cell viability is, setting by setting: (ICRF193 0 nM) over 45.8 µM; (ICRF193 200 nM) over 45.8 µM.

Molecule `CC(C)[C@H](N)C(=O)OCC(CO)OCn1cnc2c(=O)[nH]c(N)nc21` (stereo not given in full) [Valganciclovir·HCl] gave an IC50 cell viability (ICRF193 0 nM) of over 45.8 µM and an IC50 cell viability (ICRF193 200 nM) of over 45.8 µM.

Take `C=C(CC)C(=O)c1ccc(OCC(=O)O)c(Cl)c1Cl` [Ethacrynic acid]: the IC50 cell viability reads like this: (ICRF193 0 nM) over 45.8 µM; (ICRF193 200 nM) over 45.8 µM.

On to `CCOC(=O)c1cncn1[C@H](C)c1ccccc1` [Etomidate], for which the IC50 cell viability runs as follows: (ICRF193 0 nM) over 45.8 µM; (ICRF193 200 nM) over 45.8 µM.

Regarding `C=CCOc1cc(Cl)ccc1C(=O)NCCN(CC)CC` [Alloclamide], the IC50 cell viability is over 45.8 µM (ICRF193 0 nM) and over 45.8 µM (ICRF193 200 nM).

Consider `O=C1O[C@H](CO)[C@@H](O)[C@H](O)[C@H]1O` [Gluconolactone], for which the IC50 cell viability is over 45.8 µM (ICRF193 0 nM) and over 45.8 µM (ICRF193 200 nM).

Consider `CC(O)(P(=O)(O)O)P(=O)(O)O` [Etidronate disodium], for which the IC50 cell viability was over 45.8 µM (ICRF193 0 nM) and over 45.8 µM (ICRF193 200 nM).

Turning to `CNC[C@H](O)c1ccc(O)c(O)c1` [Epinephrine], the IC50 cell viability reads like this: (ICRF193 0 nM) over 45.8 µM; (ICRF193 200 nM) over 45.8 µM.

Regarding `COc1ccccc1N1CCN(CCCNc2cc(=O)n(C)c(=O)n2C)CC1` [Urapidil hydrochloride], the IC50 cell viability was over 45.8 µM (ICRF193 0 nM) and over 45.8 µM (ICRF193 200 nM).

Take `CCCCCCCCCCCCCCCC(=O)O[C@@H]1CC(C)=C(/C=C/C(C)=C/C=C/C(C)=C/C=C/C=C(C)/C=C/C=C(C)/C=C/C2=C(C)C[C@@H](OC(=O)CCCCCCCCCCCCCCC)CC2(C)C)C(C)(C)C1` [Physalien]: the IC50 cell viability reads like this: (ICRF193 0 nM) over 45.8 µM; (ICRF193 200 nM) over 45.8 µM.

On to `N[C@@H](Cc1ccc(O)c(O)c1)C(=O)O` [Levodopa], for which the IC50 cell viability reads like this: (ICRF193 0 nM) over 45.8 µM; (ICRF193 200 nM) over 45.8 µM.

For the molecule `C[C@@H]1CN([C@H]2CC[C@](C#N)(c3ccc(F)cc3)CC2)CC[C@]1(C(=O)O)c1ccccc1` [Levocabastine hydrochloride], the IC50 cell viability by setting is: (ICRF193 0 nM) over 45.8 µM; (ICRF193 200 nM) over 45.8 µM.

With `CN(C)CC/C=C1/c2ccccc2COc2ccc(CC(=O)O)cc21` [Olopatadine hydrochloride], the IC50 cell viability runs as follows: (ICRF193 0 nM) over 45.8 µM; (ICRF193 200 nM) over 45.8 µM.

`CC1=C(/C=C/C(C)=C/C=C/C(C)=C/CO)C(C)(C)CCC1` [RETINOL] yielded an IC50 cell viability (ICRF193 0 nM) of over 45.8 µM and an IC50 cell viability (ICRF193 200 nM) of over 45.8 µM.

As to `CCCCCOc1ccc(-c2cc(-c3ccc(C(=O)N[C@H]4C[C@@H](O)[C@@H](O)NC(=O)[C@@H]5[C@@H](O)[C@@H](C)CN5C(=O)[C@H]([C@H](O)CC(N)=O)NC(=O)[C@H]([C@H](O)[C@@H](O)c5ccc(O)c(OS(=O)(=O)O)c5)NC(=O)[C@@H]5C[C@@H](O)CN5C(=O)[C@H]([C@@H](C)O)NC4=O)cc3)no2)cc1` [Micafunginsodium], the IC50 cell viability by setting is: (ICRF193 0 nM) over 45.8 µM; (ICRF193 200 nM) over 45.8 µM.

`COCC1=C(C(=O)O)N2C(=O)[C@@H](NC(=O)/C(=N\OC)c3csc(N)n3)[C@H]2SC1` [CEFPODOXIME] had an IC50 cell viability (ICRF193 0 nM) of over 45.8 µM and an IC50 cell viability (ICRF193 200 nM) of over 45.8 µM.

`N#Cc1nn(-c2c(Cl)cc(C(F)(F)F)cc2Cl)c(N)c1[S+]([O-])C(F)(F)F` (stereo not given) [Fipronil]: the IC50 cell viability is, setting by setting: (ICRF193 0 nM) over 45.8 µM; (ICRF193 200 nM) over 45.8 µM.
